Patent publication US5763404A, “Methods for using LHRH antagonists with low histamine release” (priority 1995, dated 1998)
Starred links: 1 amine or outer side, 2 acyl side, 3 side chain; linkers in the order of their positions; H or OH if unused. Non-standard residues stand in square brackets, D forms with d. Residues, ends and D or L forms follow the SMILES beside them. *: point of attachment. dAla(cis-4-NHCOPyz-cHex) = N[C@H](C[C@H]1CC[C@@H](NC(=O)c2cnccn2)CC1)C(=O)O; X4 = O=C(N[C@H]1CC[C@@H](C[C@@H](N[*:1])C(=O)[*:2])CC1)c1cccnc1; X3 = O=C(N[C@H]1CC[C@H](C[C@@H](N[*:1])C(=O)[*:2])CC1)c1cnccn1; X7 = O=C(N[C@H]1CC[C@H](C[C@@H](N[*:1])C(=O)[*:2])CC1)c1cccnc1; dPhe(3,4-Cl2) = N[C@H](Cc1ccc(Cl)c(Cl)c1)C(=O)O; dPhe(4-Cl) = N[C@H](Cc1ccc(Cl)cc1)C(=O)O; Pyrimidin2yl(4,6-Me2) = Cc1cc(C)nc(*)n1; d2Nal = N[C@H](Cc1ccc2ccccc2c1)C(=O)O; Picolinoyl(6-Me) = Cc1cccc(C(=O)*)n1; dLys(Me2) = CN(C)CCCC[C@@H](N)C(=O)O; Lys(iPr) = CC(C)NCCCC[C@H](N)C(=O)O; Orn(iPr) = CC(C)NCCC[C@H](N)C(=O)O; NH(4-MeO-phenyl) = COc1ccc(N*)cc1; Pyrazinecarbonyl = O=C(c1cnccn1)*; d3Pal = N[C@H](Cc1cccnc1)C(=O)O; Nicotinoyl = O=C(c1cccnc1)*; Picolinoyl = O=C(c1ccccn1)*; Orn = NCCC[C@H](N)C(=O)O; Me2Gly = CN(C)CC(=O)*

The compounds below were run on anaesthesized rats (assay: wheal test, intradermal injection). Conditions: 10 ug peptide intradermally.
Format: in vivo, rat
Design: Wheal (wheal response): unit not given here
How it was run: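 Anaesthetized rats given intradermal injection of 10 ug peptide in 100 ul saline; area of the wheal calculated from its diameter.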
With `CC(=O)N[C@H](Cc1ccc2ccccc2c1)C(=O)N[C@H](Cc1ccc(Cl)cc1)C(=O)N[C@H](Cc1cccnc1)C(=O)N[C@@H](CO)C(=O)N[C@@H](CCCCNC(=O)c1cccnc1)C(=O)N[C@H](C[C@H]1CC[C@H](NC(=O)c2cnccn2)CC1)C(=O)N[C@@H](CC(C)C)C(=O)N[C@@H](CCCCNC(C)C)C(=O)N1CCC[C@H]1C(=O)N[C@H](C)C(N)=O` [compound 25805] (Ac-[d2Nal][dPhe(4-Cl)][d3Pal]SK(Nicotinoyl)[X3]L[Lys(iPr)]P[dA]-NH2) the “Wheal Area” value was 129.6 ± 8.8 mm^2 /10 μg.
`CC(=O)N[C@H](Cc1ccc2ccccc2c1)C(=O)N[C@H](Cc1ccc(Cl)cc1)C(=O)N[C@H](Cc1cccnc1)C(=O)N[C@@H](CO)C(=O)N[C@@H](CCCCNC(=O)c1cccnc1)C(=O)N[C@H](C[C@H]1CC[C@@H](NC(=O)c2cnccn2)CC1)C(=O)N[C@@H](CC(C)C)C(=O)N[C@@H](CCCCNC(C)C)C(=O)N1CCC[C@H]1C(=O)N[C@H](C)C(N)=O` [compound 25806] (Ac-[d2Nal][dPhe(4-Cl)][d3Pal]SK(Nicotinoyl)[dAla(cis-4-NHCOPyz-cHex)]L[Lys(iPr)]P[dA]-NH2) was tested, and the “Wheal Area” value was 101.7 ± 5.0 mm^2 /10 μg.
For `CC(=O)N[C@H](Cc1ccc2ccccc2c1)C(=O)N[C@H](Cc1ccc(Cl)c(Cl)c1)C(=O)N[C@H](Cc1cccnc1)C(=O)N[C@@H](CO)C(=O)N[C@@H](CCCCNC(=O)c1ccccn1)C(=O)N[C@H](CCCCNC(=O)c1ccccn1)C(=O)N[C@@H](CC(C)C)C(=O)N[C@@H](CCCCNC(C)C)C(=O)N1CCC[C@H]1C(=O)N[C@H](C)C(N)=O` [compound 25807] (Ac-[d2Nal][dPhe(3,4-Cl2)][d3Pal]SK(Picolinoyl)[dK](Picolinoyl)L[Lys(iPr)]P[dA]-NH2), the “Wheal Area” value was 139.8 ± 7.1 mm^2 /10 μg.
In the case of `CC(=O)N[C@H](Cc1ccc2ccccc2c1)C(=O)N[C@H](Cc1ccc(Cl)cc1)C(=O)N[C@H](Cc1cccnc1)C(=O)N[C@@H](CO)C(=O)N[C@@H](CCCCNC(=O)c1cccc(C)n1)C(=O)N[C@H](CCCCNC(=O)c1cccc(C)n1)C(=O)N[C@@H](CC(C)C)C(=O)N[C@@H](CCCCNC(C)C)C(=O)N1CCC[C@H]1C(=O)N[C@H](C)C(N)=O` [compound 25808] (Ac-[d2Nal][dPhe(4-Cl)][d3Pal]SK(Picolinoyl(6-Me))[dK](Picolinoyl(6-Me))L[Lys(iPr)]P[dA]-NH2), the “Wheal Area” value was 106.2 ± 4.3 mm^2 /10 μg.
For `CC(=O)N[C@H](Cc1ccc2ccccc2c1)C(=O)N[C@H](Cc1ccc(Cl)cc1)C(=O)N[C@H](Cc1cccnc1)C(=O)N[C@@H](CO)C(=O)N[C@@H](CCCCNC(=O)c1ccccn1)C(=O)N[C@H](CCCCNC(=O)c1ccccn1)C(=O)N[C@@H](CC(C)C)C(=O)N[C@@H](CCCNC(C)C)C(=O)N1CCC[C@H]1C(=O)N[C@H](C)C(N)=O` [compound 25933] (Ac-[d2Nal][dPhe(4-Cl)][d3Pal]SK(Picolinoyl)[dK](Picolinoyl)L[Orn(iPr)]P[dA]-NH2), the “Wheal Area” value was 113.0 ± 0 mm^2 /10 μg.
With `CC(=O)N[C@H](Cc1ccc2ccccc2c1)C(=O)N[C@H](Cc1ccc(Cl)cc1)C(=O)N[C@H](Cc1cccnc1)C(=O)N[C@@H](CO)C(=O)N[C@@H](CCCCNC(=O)c1ccccn1)C(=O)N[C@H](CCCCNC(=O)c1ccccn1)C(=O)N[C@H](C(=O)N[C@@H](CCCCNC(C)C)C(=O)N1CCC[C@H]1C(=O)N[C@H](C)C(N)=O)C(C)C` [compound 25934] (Ac-[d2Nal][dPhe(4-Cl)][d3Pal]SK(Picolinoyl)[dK](Picolinoyl)V[Lys(iPr)]P[dA]-NH2) the “Wheal Area” value was 97.9 ± 2.9 mm^2 /10 μg.
With `CC(=O)N[C@H](Cc1ccc2ccccc2c1)C(=O)N[C@H](Cc1ccc(Cl)cc1)C(=O)N[C@H](Cc1cccnc1)C(=O)N[C@@H](CO)C(=O)N[C@@H](CCCCNC(=O)c1ccccn1)C(=O)N[C@H](CCCCNC(=O)c1ccccn1)C(=O)N[C@@H](Cc1c[nH]c2ccccc12)C(=O)N[C@@H](CCCCNC(C)C)C(=O)N1CCC[C@H]1C(=O)N[C@H](C)C(N)=O` [compound 25935] (Ac-[d2Nal][dPhe(4-Cl)][d3Pal]SK(Picolinoyl)[dK](Picolinoyl)W[Lys(iPr)]P[dA]-NH2) the “Wheal Area” value was 78.5 ± 0 mm^2 /10 μg.

Same assay, conditions: Table I; 10 ug peptide intradermally
Work on `CC(=O)N[C@H](Cc1ccc2ccccc2c1)C(=O)N[C@H](Cc1ccc(Cl)cc1)C(=O)N[C@H](Cc1cccnc1)C(=O)N[C@@H](CO)C(=O)N[C@@H](CCCNc1nc(C)cc(C)n1)C(=O)N[C@H](CCCCNC(=O)c1cccnc1)C(=O)N[C@@H](CC(C)C)C(=O)N[C@@H](CCCCNC(C)C)C(=O)N1CCC[C@H]1C(=O)N[C@H](C)C(N)=O` [compound 25506] (Ac-[d2Nal][dPhe(4-Cl)][d3Pal]S[Orn](Pyrimidin2yl(4,6-Me2))[dK](Nicotinoyl)L[Lys(iPr)]P[dA]-NH2) yielded a Wheal of 110 ± 3 mm^2 /10.
With `CC(=O)N[C@H](Cc1ccc2ccccc2c1)C(=O)N[C@H](Cc1ccc(Cl)cc1)C(=O)N[C@H](Cc1cccnc1)C(=O)N[C@@H](CO)C(=O)N[C@@H](CCCCNC(=O)CN(C)C)C(=O)N[C@H](CCCCNC(=O)c1cccnc1)C(=O)N[C@@H](CC(C)C)C(=O)N[C@@H](CCCCNC(C)C)C(=O)N1CCC[C@H]1C(=O)N[C@H](C)C(N)=O` [compound 25509] (Ac-[d2Nal][dPhe(4-Cl)][d3Pal]SK(Me2Gly)[dK](Nicotinoyl)L[Lys(iPr)]P[dA]-NH2) the Wheal was 110 ± 3 mm^2 /10.
`CC(=O)N[C@H](Cc1ccc2ccccc2c1)C(=O)N[C@H](Cc1ccc(Cl)cc1)C(=O)N[C@H](Cc1cccnc1)C(=O)N[C@@H](CO)C(=O)N[C@@H](CCCCNC(=O)c1ccccn1)C(=O)N[C@H](CCCCNC(=O)c1cccnc1)C(=O)N[C@@H](CC(C)C)C(=O)N[C@@H](CCCCNC(C)C)C(=O)N1CCC[C@H]1C(=O)N[C@H](C)C(N)=O` [compound 25510] (Ac-[d2Nal][dPhe(4-Cl)][d3Pal]SK(Picolinoyl)[dK](Nicotinoyl)L[Lys(iPr)]P[dA]-NH2) showed a Wheal of 116 ± 3.3 mm^2 /10.
`COc1ccc(NC(=O)CC[C@@H](NC(=O)[C@H](CCCCNC(=O)c2cccnc2)NC(=O)[C@H](CO)NC(=O)[C@@H](Cc2cccnc2)NC(=O)[C@@H](Cc2ccc(Cl)cc2)NC(=O)[C@@H](Cc2ccc3ccccc3c2)NC(C)=O)C(=O)N[C@@H](CC(C)C)C(=O)N[C@@H](CCCCNC(C)C)C(=O)N2CCC[C@H]2C(=O)N[C@H](C)C(N)=O)cc1` [compound 25588] (Ac-[d2Nal][dPhe(4-Cl)][d3Pal]SK(Nicotinoyl)[dE](NH(4-MeO-phenyl))L[Lys(iPr)]P[dA]-NH2) was tested, and the Wheal was 113 ± 7 mm^2 /10.
`CC(=O)N[C@H](Cc1ccc2ccccc2c1)C(=O)N[C@H](Cc1ccc(Cl)cc1)C(=O)N[C@H](Cc1cccnc1)C(=O)N[C@@H](CO)C(=O)N[C@@H](CCCCNC(=O)c1cccnc1)C(=O)N[C@H](CCCCNC(=O)c1ccccn1)C(=O)N[C@@H](CC(C)C)C(=O)N[C@@H](CCCCNC(C)C)C(=O)N1CCC[C@H]1C(=O)N[C@H](C)C(N)=O` [compound 25589] (Ac-[d2Nal][dPhe(4-Cl)][d3Pal]SK(Nicotinoyl)[dK](Picolinoyl)L[Lys(iPr)]P[dA]-NH2) showed a Wheal of 120 ± 7 mm^2 /10.
For `CC(=O)N[C@H](Cc1ccc2ccccc2c1)C(=O)N[C@H](Cc1ccc(Cl)cc1)C(=O)N[C@H](Cc1cccnc1)C(=O)N[C@@H](CO)C(=O)N[C@@H](CCCCNC(=O)c1cccnc1)C(=O)N[C@H](CCCCN(C)C)C(=O)N[C@@H](CC(C)C)C(=O)N[C@@H](CCCCNC(C)C)C(=O)N1CCC[C@H]1C(=O)N[C@H](C)C(N)=O` [compound 25591] (Ac-[d2Nal][dPhe(4-Cl)][d3Pal]SK(Nicotinoyl)[dLys(Me2)]L[Lys(iPr)]P[dA]-NH2), the Wheal was 111 ± 2 mm^2 /10.
`CC(=O)N[C@H](Cc1ccc2ccccc2c1)C(=O)N[C@H](Cc1ccc(Cl)cc1)C(=O)N[C@H](Cc1cccnc1)C(=O)N[C@@H](CO)C(=O)N[C@@H](CCCCNC(=O)c1cccnc1)C(=O)N[C@H](C[C@H]1CC[C@H](NC(=O)c2cccnc2)CC1)C(=O)N[C@@H](CC(C)C)C(=O)N[C@@H](CCCCNC(C)C)C(=O)N1CCC[C@H]1C(=O)N[C@H](C)C(N)=O` [compound 25647] (Ac-[d2Nal][dPhe(4-Cl)][d3Pal]SK(Nicotinoyl)[X7]L[Lys(iPr)]P[dA]-NH2) showed a Wheal of 119.5 ± 3.2 mm^2 /10.
In the case of `CC(=O)N[C@H](Cc1ccc2ccccc2c1)C(=O)N[C@H](Cc1ccc(Cl)cc1)C(=O)N[C@H](Cc1cccnc1)C(=O)N[C@@H](CO)C(=O)N[C@@H](CCCCNC(=O)c1cccnc1)C(=O)N[C@H](C[C@H]1CC[C@@H](NC(=O)c2cccnc2)CC1)C(=O)N[C@@H](CC(C)C)C(=O)N[C@@H](CCCCNC(C)C)C(=O)N1CCC[C@H]1C(=O)N[C@H](C)C(N)=O` [compound 25648] (Ac-[d2Nal][dPhe(4-Cl)][d3Pal]SK(Nicotinoyl)[X4]L[Lys(iPr)]P[dA]-NH2), the Wheal was 113.6 mm^2 /10.
`CC(=O)N[C@H](Cc1ccc2ccccc2c1)C(=O)N[C@H](Cc1ccc(Cl)cc1)C(=O)N[C@H](Cc1cccnc1)C(=O)N[C@@H](CO)C(=O)N[C@@H](CCCCNC(=O)c1cccnc1)C(=O)N[C@H](CCCCNC(=O)c1cnccn1)C(=O)N[C@@H](CC(C)C)C(=O)N[C@@H](CCCCNC(C)C)C(=O)N1CCC[C@H]1C(=O)N[C@H](C)C(N)=O` [compound 25649] (Ac-[d2Nal][dPhe(4-Cl)][d3Pal]SK(Nicotinoyl)[dK](Pyrazinecarbonyl)L[Lys(iPr)]P[dA]-NH2) showed a Wheal of 122.2 ± 5.1 mm^2 /10.
Work on `CC(=O)N[C@H](Cc1ccc2ccccc2c1)C(=O)N[C@H](Cc1ccc(Cl)cc1)C(=O)N[C@H](Cc1cccnc1)C(=O)N[C@@H](CO)C(=O)N[C@@H](CCCCNC(=O)c1cnccn1)C(=O)N[C@H](CCCCNC(=O)c1cnccn1)C(=O)N[C@@H](CC(C)C)C(=O)N[C@@H](CCCCNC(C)C)C(=O)N1CCC[C@H]1C(=O)N[C@H](C)C(N)=O` [compound 25650] (Ac-[d2Nal][dPhe(4-Cl)][d3Pal]SK(Pyrazinecarbonyl)[dK](Pyrazinecarbonyl)L[Lys(iPr)]P[dA]-NH2) yielded a Wheal of 110.2 mm^2 /10.

Same assay, conditions: Table XIV and text, unit not given
In the case of `CC(=O)N[C@H](Cc1ccc2ccccc2c1)C(=O)N[C@H](Cc1ccc(Cl)cc1)C(=O)N[C@H](Cc1cccnc1)C(=O)N[C@@H](CO)C(=O)N[C@@H](CCCCNC(=O)c1ccccn1)C(=O)N[C@H](C[C@H]1CC[C@@H](NC(=O)c2cnccn2)CC1)C(=O)N[C@@H](CC(C)C)C(=O)N[C@@H](CCCCNC(C)C)C(=O)N1CCC[C@H]1C(=O)N[C@H](C)C(N)=O` [compound 25897] (Ac-[d2Nal][dPhe(4-Cl)][d3Pal]SK(Picolinoyl)[dAla(cis-4-NHCOPyz-cHex)]L[Lys(iPr)]P[dA]-NH2), the “Wheal (wheal response)” value was 122.8.
`CC(=O)N[C@H](Cc1ccc2ccccc2c1)C(=O)N[C@H](Cc1ccc(Cl)cc1)C(=O)N[C@H](Cc1cccnc1)C(=O)N[C@@H](CO)C(=O)N[C@@H](CCCCNC(=O)c1ccccn1)C(=O)N[C@H](CCCCNC(=O)c1ccccn1)C(=O)N[C@@H](CC(C)C)C(=O)N[C@@H](CCCNC(C)C)C(=O)N1CCC[C@H]1C(=O)N[C@H](C)C(N)=O` [compound 25933] (Ac-[d2Nal][dPhe(4-Cl)][d3Pal]SK(Picolinoyl)[dK](Picolinoyl)L[Orn(iPr)]P[dA]-NH2) was tested, and the “Wheal (wheal response)” value was 113.0 ± 0.
